Entries after “also recorded” stand apart in the source; their conditions may differ.
Experiments:
[1] = test system: D1 receptor / adenylyl cyclase coupling in renal proximal tubule cells; test: cAMP accumulation in renal proximal tubule cells; type: cell-based, human; conditions: normotensive versus hypertensive subjects
Method: Cultures of renal proximal tubule cells from histologically-verified normal kidney sections (5×10^5 cells/well in 24 well plastic plates coated with 0.075% Type I collagen) were incubated at 37° C. in […] and grown in a serum-free medium consisting of a 1:1 mixture of Dulbecco's Modified Eagle's medium and Ham's F12 medium supplemented with selenium (5 ng/ml), insulin (5 μg/ml), transferrin (5 μg/ml), hydrocortisone (36 ng/ml), triiodothyronine (4 pg/ml), and epidermal growth factor (10 ng/ml). When sub-confluent (90-95%), the cells were sub-cultured (passages 6-8) for use in experimental protocols using trypsin-EDTA (0.05%, 0.02%). The culture conditions are conducive for growth of human renal proximal tubules that retain characteristics of renal proximal tubule cells, Sanada, et al., J. Invest. Med. 45:277 A (1997).
The cells were washed twice with Dulbecco's phosphate buffered saline (D-PBS), after which 1 mM 3-isobutyl-1-methyl-xanthine was added to each well. […] Then, the cells were washed twice with D-PBS and frozen at −80° C. and the cells were further lysed with 0.1N HCl. cAMP concentration was measured by radioimmunoassay. […] Protein concentration was measured with the BCA protein assay kit (Pierce Chem. Co., Rockford, Ill.). […]

[2] = test system: GRK activity in renal proximal tubule cells; test: GRK activity (phosphorylation of rhodopsin) in extracts of renal proximal tubule cells; type: cell-based, human
From the text: Human kidneys were obtained as fresh surgical specimens from patients who had unilateral nephrectomy due to renal carcinoma. The patient records of the subjects were reviewed and classified into those with either normal blood pressure (n=9) or essential hypertension (n=14). Subjects with systolic blood pressures less than 140 mm Hg and diastolic blood pressures less than 90 mm Hg were considered normotensive. Subjects with systolic blood pressures equal to or greater than 140 mm Hg or diastolic blood pressures equal to or greater than 90 mm Hg and/or on antihypertensive medications were considered hypertensive. […]
GRK activity was measured according to Benovic, Methods Enzymol. […] The gels were subjected to autoradiography, and the phosphorylated rhodopsin was quantified using both densitometry and radioactive counting of the excised bands at the appropriate size. GRK activity was also measured in the presence or absence of a GRK isoform antibody.

D1 receptor [3] = test: cAMP production in CHO cells transfected with D1 receptor and GRK4γ; type: cell-based
Method: The cells were washed twice with Dulbecco's phosphate buffered saline (D-PBS), after which 1 mM 3-isobutyl-1-methyl-xanthine was added to each well. The cells were incubated at 37° C. for 30 minutes with or without drugs: dopamine and the D1-like receptor agonist, fenoldopam, the D1-like receptor antagonist, SCH23390 (Research Biochemicals International, Natick, Mass.), and forskolin (Sigma Chemical Co., St. Louis, Mo.). Then, the cells were washed twice with D-PBS and frozen at −80° C. and the cells were further lysed with 0.1N HCl. cAMP concentration was measured by radioimmunoassay. […] Protein concentration was measured with the BCA protein assay kit (Pierce Chem. Co., Rockford, Ill.).
The rat D1 (rD1) or human D1 (hD1) receptor cDNA was subcloned in the expression vector pPUR (Clontech, Palo Alto, Calif.) or pcDNA3.1/Zeo (Invitrogen, Carlsbad, Calif.), respectively, between EcoRland XbaI sites. The resulting constructs were used to stably transfect CHO cells expressing the pTet-Off regulator plasmid (Clontech, Palo Alto, Calif.) using calcium phosphate. […] GRK4γ and GRK4δcDNAs, obtained from RT/PCR of mRNA from human kidney cortex were subcloned into a pTet-Off response plasmid (pTRE-rD1 or pTRE-hD1 and pTK-Hyg mixed in a 20:1 ratio, respectively) (Clontech, Palo Alto, Calif.).
GRK4δ was used for comparison.

D1 receptor [4] = target: T1, D1 receptor (Homo sapiens, UniProt P21728); test: Serine phosphorylation of D1 receptor (immunoprecipitation / anti-phosphoserine immunoblot) in renal proximal tubule cells; type: cell-based; conditions: normotensive subjects
T1 construct: endogenous in cells; host or cells: renal proximal tubule cells in culture from normotensive and hypertensive human subjects
Method: Proximal tubule cells were incubated with vehicle, fenoldopam, sense, scrambled or antisense propyne/phosphorothioate oligonucleotides (5 nM) as described above. The membranes were lyzed with ice cold lysis buffer (PBS with 1% NP40, 0.5% sodium deoxycholate, 0.1% SDS, 1 mM EDTA, 1 mM EGTA, 1 mM sodium vanadate, 1 mM NaF, 1 mM PMSF, 10 μg/ml aprotinin and 10 μg/ml leupeptin). The lysates were incubated with IgG-purified anti D1 receptor antibody on ice for 1 hr and protein-A agarose for 12 hrs with rocking at 4° C. The proteins separated by SDS-polyacrylamide gel electrophoresis were electrophoretically transferred onto nitrocellulose membranes. The transblot sheets blocked with 5-10% nonfat dry milk in 10 mM Tris-HCl, pH 7.5, 150 mM NaCl, and 0.1% Tween-20 were incubated with diluted affinity-purified polyclonal anti-phosphoserine antibody (Zymed Lab, San Francisco, Calif.); Sanada, et al., supra. In some cases, the cells were labeled with ^32P and immunoprecipitated with anti D1 receptor antibody. The autoradiograms and immunoblots, visualized with ECL system (Amersham, Arlington Heights, Il) were quantified by densitometry. Sanada, et al., supra.

T1 sequence (P21728 whole entry): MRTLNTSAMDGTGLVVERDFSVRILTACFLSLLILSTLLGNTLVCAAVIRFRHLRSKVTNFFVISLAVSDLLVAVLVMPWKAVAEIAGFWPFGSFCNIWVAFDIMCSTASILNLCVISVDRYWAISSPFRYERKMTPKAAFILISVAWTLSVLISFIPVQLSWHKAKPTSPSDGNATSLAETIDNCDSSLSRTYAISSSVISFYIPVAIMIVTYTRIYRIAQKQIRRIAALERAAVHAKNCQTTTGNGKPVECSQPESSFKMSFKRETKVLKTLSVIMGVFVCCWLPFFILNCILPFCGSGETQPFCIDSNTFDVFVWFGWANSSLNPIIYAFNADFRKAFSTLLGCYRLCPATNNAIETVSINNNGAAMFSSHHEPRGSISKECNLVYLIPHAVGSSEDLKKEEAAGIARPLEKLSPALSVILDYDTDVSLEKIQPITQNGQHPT

SMILES: Oc1ccc(C2CNCCc3c2cc(O)c(O)c3Cl)cc1 (centres unmarked) [fenoldopam]
- cAMP accumulation [1]: increased cAMP accumulation to a greater extent in renal proximal tubule cells from normotensive than from hypertensive subjects
- effect on GRK activity, assessed by the phosphorylation of rhodopsin ([2]; renal proximal tubule cells from hypertensive subjects): increased GRK activity
- effect on GRK activity, assessed by the phosphorylation of rhodopsin ([2]; renal proximal tubule cells from normotensive subjects): had no effect on GRK activity; also recorded: failed to increase GRK activity
- selectivity of action on cAMP production (D1 receptor [3]): selective for the D1 receptor
- quantity of serine-phosphorylated D1 receptor (D1 receptor [4]): increased the quantity of serine-phosphorylated D1 receptor
